# Counter-ions that a name gives are not always drawn. Where no end group is shown, it is not given here.
# Test system: SMN protein in SMA patient fibroblasts (GM03813)
# Assay: SMN cytoblot assay (SMN protein levels in SMA patient fibroblasts)
# Assay type: cell-based, human
# Conditions: not given
# Text: One method for monitoring SMN protein levels in cells is through use of a cytoblot assay, in which cells are fixed and probed with an antibody against a target protein of interest. We have used a cytoblot assay to determine the concentration of SMN protein in SMA patient fibroblasts, and have identified small molecules that increase SMN protein concentration.
# Using the cytoblot assay, we can clearly distinguish SMN protein levels in patient (GM03813) versus carrier fibroblast cells (GM03814), as shown in the FIGS. 1A and 1B.
# • 1. Plate 50 μl per well of 300,000 cells/ml (15,000 cells per well) into Nunc white 384-well opaque-bottomed plates. • 2. Incubate plates at 37° C., 5% CO2 overnight. Day 2 • 1. Aspirate media from wells using Tecan plate washer. • 2. Fix cells by adding 20 μl/well of cold methanol (kept in −20° C. freezer). • 3. Incubate plates in 4° C. refrigerator for 10 minutes. • 4. Aspirate methanol using Tecan plate washer. • 5. Add 50 μl/well of primary Ab solution, (BD anti-SMN Ab diluted to 125 ng/ml in 10% fetal goat serum PBST), using multi-drop. • 6. Seal plates and incubate overnight at room temperature. Day 3 • 1. After 16-20 hrs incubation, wash plates with PBST 2× using Tecan plate washer. • 2. Add 50 μl of secondary Ab solution, (Santa Cruz goat anti-Mouse-HRP diluted to 67 ng/ml in 10% fetal goat serum PBST). • 3. Seal plates and incubate 2 hrs at room temperature. • 4. Wash plates with PBST 2× using Tecan plate washer. • 5. Add 50 μl/well 10% fetal goat serum PBST. • 6. Incubate in 4° C. refrigerator for 10 minutes. • 7. Aspirate plates using plate washer and add ECL luminescence solution, 20 μl/well. • 8. Measure luminescence on plate reader. Automated Scoring
# We scored each compound based on the maximum signal-to-noise ratio (SNR) found among its dose curves. These scores are based on edge-corrected SMN data, using only plates that passed quality control. The untreated level on each plate was found by taking the median of the untreated wells, and for each treated well we calculated a log(T/U) ratio. Each curve was generated in triplicate on each plate, so each point on a compound's dose curve was obtained by determining the median for the replicate points. Each ratio thus has an error estimate from the scatter between the triplicate data points (1.5 times the median absolute deviation from the median). For each dose curve, we calculated the SNR for each data point log(T/U)/error, and chose the maximum point as our indicator of SMN induction activity. Since this is a signal-to-noise score, scores much greater than one indicate significant activity, assuming normal statistics. We decided to use a cutoff signal-to-noise ratio of 6. This selection represents a considerable enrichment towards visually-selected compounds. We identified 100 out of 2000 compounds producing scores >6. This included 13 of the 28 visual selections.
row,Compound,SNR
1,[Ca+2].[Cl-].[Cl-] [Calcium Chloride],7.63

# Same assay, conditions: maximum signal-to-noise ratio log(T/U)/error among a compound's dose curves, SMN cytoblot; cutoff 6; column Scoring says Automated or Visual selection
row,Compound,SNR
1,CC1(C)S[C@@H]2[C@H](NC(=O)C(C(=O)O)c3ccccc3)C(=O)N2[C@H]1C(=O)O (some centres unmarked) [Carbenicillin Disodium],7.99
2,C[C@H]1COc2c(C3(N)CC3)c(F)cc3c(=O)c(C(=O)O)cn1c23 [Pazufloxacin],7.83
3,CC(=O)OCC(=O)[C@@]12OC(C)(C)O[C@@H]1C[C@H]1[C@@H]3C[C@H](F)C4=CC(=O)C=C[C@]4(C)[C@@]3(F)[C@@H](O)C[C@@]12C [Fluocinonide],7.01
4,O=C1O[C@H]([C@@H](O)CO)C(O)=C1O [Ascorbic Acid],6.29
5,CCCCCC/C=C\CCCCCCCC(=O)OC [Methyl Palmitoleate],9.63
6,CCCCc1cccs1 [2-n-Butylthiophene],8.96
7,C/C=C/c1ccc(OC)cc1 [Trans-Anethole],8.35
8,CCCCCC(Br)C(=O)O (stereo not drawn) [alpha-Bromohepyanoic acid],8.41
9,CN1CCN(C2=Nc3ccccc3Oc3ccc(Cl)cc32)CC1 [Loxapine Hydrochloride],10.1
10,OC[C@@H](O)[C@@H](O[C@@H]1O[C@H](CO)[C@H](O)[C@H](O)[C@H]1O)[C@H](O)[C@@H](O)CO [Lactitol],15.8
11,CC(C)=CCCC(C)CC=O (centres unmarked) [Citronellal],8.6
12,NCCc1c[nH]c2ccc(O)cc12 [Serotonin],6.15
13,"Calcitonin (CGNLSTCMLGTYTQDFNKFHTFPQTAIGVGAP; ends and bridges not checked; cysteine pairing not given here; UniProt P01258 85-116, looked up)",7.46
14,CC(=O)N1C[C@H](O)C[C@H]1C(=O)O [Oxaceprol],10.6
15,[Cl][Cu][Cl] [Cupric Chloride],12.1
16,CC1=C(/C=C/C(C)O)C(C)(C)CCC1 (stereo not drawn) [Beta-Ionol],10.3
17,CC(CCc1ccc(O)cc1)NCCc1ccc(O)c(O)c1 (centres unmarked) [Dobutamine Hydrochloride],6.47
18,NCC[C@H](O)C(=O)N[C@@H]1C[C@H](N)[C@@H](O[C@H]2O[C@H](CN)[C@@H](O)[C@H](O)[C@H]2O)[C@H](O)[C@H]1O[C@H]1O[C@H](CO)[C@@H](O)[C@H](N)[C@H]1O.O=S(=O)(O)O.O=S(=O)(O)O [Amikacin Sulfate],7.7
19,COC(=O)[C@H]1[C@H]2C[C@@H]3c4[nH]c5cc(OC)ccc5c4CCN3C[C@H]2C[C@@H](OC(=O)/C=C/c2cc(OC)c(OC)c(OC)c2)[C@@H]1OC [Rescinnamine],6.3
